# Experimental data taken from the PolyMetriX glass transition set.
# ± gives the standard deviation of the reports.
row,SMILES,glass transition temperature [°C]
1,*Oc1ccc(/N=C(\c2ccccc2)c2ccc(Oc3ccc(-c4ccc(Oc5ccc(/C(=N/c6ccc(*)cc6)c6ccccc6)cc5)cc4)cc3)cc2)cc1 (repeat unit),174.00
2,*CC#CC#CCOC(=O)c1ccc(C(=O)O*)cc1 (repeat unit),143.00
3,*CC(*)c1ccccc1C(=O)OCCCC (repeat unit),66.00
4,*Oc1ccc(C(c2ccccc2)(c2ccccc2)c2ccc(OC(=O)c3cccc(C(*)=O)c3)cc2)cc1 (repeat unit),229.00
5,*c1cccc(C(=O)Nc2cccc(S(=O)(=O)c3cccc(NC(=O)c4cccc(N5C(=O)c6ccc(-c7cccc8c7C(=O)N(*)C8=O)cc6C5=O)c4)c3)c2)c1 (repeat unit),261.00
6,*O[Si](*)(CCCOCCOCCOC)CCCOCCOCCOC (repeat unit),-63.40
7,*Oc1ccc(C(C)(C)c2ccc(Oc3ccc(C(=O)c4ccc(C(=O)c5ccc(*)c(C(F)(F)F)c5)cc4)cc3C(F)(F)F)cc2)cc1 (repeat unit),171.00
8,*C(F)(F)C(*)(F)OC(F)C(F)F (repeat unit),35.00
9,*c1ccc(Oc2ccc(C(=O)c3ccc(C(=O)c4ccc(Oc5ccc(-c6cc(*)n(-c7ccccc7)n6)cc5)cc4)cc3)cc2)cc1 (repeat unit),205.00
10,*CCCCCCCCCCOC(=O)NCCCCCCNC(=O)O* (repeat unit),55.00
11,*C1C(=O)N(c2cc(Br)c(O[Si](CC)(CC)CC)c(Br)c2)C(=O)C1* (repeat unit),160.00
12,*CC(*)C(=O)OCCCCCCC (repeat unit),-60.00
13,*C(=O)Nc1cccc(NC(=O)c2ccc3c(c2)C(=O)N(c2cccc(P(=O)(c4ccccc4)c4cccc(N5C(=O)c6ccc(*)cc6C5=O)c4)c2)C3=O)n1 (repeat unit),156.00
14,*Oc1ccc(C(=O)c2cccc(C(=O)c3ccc(*)c(C(C)C)c3)c2)cc1C (repeat unit),147.00
15,*C(*)(F)F (repeat unit) [Poly(tetrafluoroethylene)],118.42 ± 2.2
16,*c1ccc(N(c2ccc(C#N)cc2)c2ccc(N3C(=O)c4ccc(Oc5ccc(C(c6ccc(Oc7ccc8c(c7)C(=O)N(*)C8=O)cc6)(C(F)(F)F)C(F)(F)F)cc5)cc4C3=O)cc2)cc1 (repeat unit),234.00
17,*c1cccc(-n2c(=O)c3cc4c(=O)n(*)c(=O)c4cc3c2=O)n1 (repeat unit),183.50
18,*CCCCCCC(=O)NCc1ccc(CNC(=O)CCCCCCS*)cc1 (repeat unit),65.00
19,*/C=C/C(C(=O)OCc1ccccc1)C(*)C(=O)OCc1ccccc1 (repeat unit),21.00
20,*CC(*)C(=O)Oc1ccc(Cl)cc1 (repeat unit),330.00
21,*C(=O)c1cc(C(=O)c2ccc3c(c2)C(=O)N(c2ccc(C(c4ccc(N5C(=O)c6ccc(*)cc6C5=O)cc4)(C(F)(F)F)C(F)(F)F)cc2)C3=O)cc(-c2ccccc2)c1 (repeat unit),260.50
22,*C(=O)Nc1ccc(Oc2cccc(Oc3ccc(NC(=O)c4ccc5c(c4)C(=O)N(c4ccc(Sc6ccc(Oc7ccc(Sc8ccc(N9C(=O)c%10ccc(*)cc%10C9=O)cc8)cc7)cc6)cc4)C5=O)cc3)c2)cc1 (repeat unit),179.00
23,*c1cccc(P(=O)(c2ccc(C(F)(F)F)cc2)c2cccc(-n3c(=O)c4cc5c(=O)n(*)c(=O)c5c(-c5ccccc5)c4c3=O)c2)c1 (repeat unit),311.00
24,*c1ccc(-c2ccc(-c3cc(-c4ccc(Oc5ccc(Oc6ccccc6)cc5)cc4)c4cc(-c5ccc6nc(*)cc(-c7ccc(Oc8ccc(Oc9ccccc9)cc8)cc7)c6c5)ccc4n3)cc2)cc1 (repeat unit),355.00
25,*c1ccc(Oc2ccc(N3C(=O)c4ccc(Oc5cccc6c5C(=O)N(*)C6=O)cc4C3=O)cc2)cc1 (repeat unit),285.00

row,SMILES,glass transition temperature [°C]
1,*/C(C)=C(/*)CCCCC (repeat unit),180.00
2,*c1ccc(Cc2ccc(N3C(=O)C(Cl)=C(Oc4ccc(C(c5ccc(OC6=C(Cl)C(=O)N(*)C6=O)cc5)(C(F)(F)F)C(F)(F)F)cc4)C3=O)cc2)cc1 (repeat unit),189.00
3,*COC(=O)NCc1ccc(CNC(=O)OCc2ccc(*)o2)o1 (repeat unit),75.00
4,*/C(Cl)=C(/*)CCCCCC (repeat unit),150.00
5,*CC(*)c1ccc(C(=O)OC(C)C)cc1 (repeat unit),95.00
6,*OP(=O)(Oc1ccc(*)cc1)OC1CCCCC1 (repeat unit),108.00
7,*Oc1ccc(CC(NC(=O)CCc2ccc(OC(=O)CCC(*)=O)cc2)C(=O)OCc2ccccc2)cc1 (repeat unit),78.00
8,*CC(*)C#N (repeat unit) [Poly(acrylonitrile)],110 ± 12
9,*CCCOC(=O)O* (repeat unit),-17.70
10,*C(=O)c1ccc2c(c1)C(=O)N(c1cccc(C(=O)c3ccc(Oc4ccc(N5C(=O)c6ccc(*)cc6C5=O)cc4C(F)(F)F)cc3)c1)C2=O (repeat unit),242.00
11,*OC(C)CCOC(=O)C(CCCCCCOc1ccc(/N=C/c2ccc([N+](=O)[O-])cc2)cc1)C(*)=O (repeat unit),3.00
12,*CCCCNC(=O)c1ccc(C(C)(CC)c2ccc(C(=O)N*)cc2)cc1 (repeat unit),182.00
13,*CCN(*)C(=O)c1ccccc1 (repeat unit),111.00
14,*CCOCCOC(=O)C(CCC)C(=O)O* (repeat unit),-38.00
15,*OC(=O)OCCOCCOC(=O)OC1COC2C(*)COC12 (repeat unit),46.50
16,*CC(*)(C)C(=O)OCC1COCCOCCOCCO1 (repeat unit),35.00
17,*CC(O)CN(CC(O)COc1ccc(C(C)(C)c2ccc(O*)cc2)cc1)c1ccc(/N=N/c2ccc([N+](=O)[O-])cc2)cc1 (repeat unit),59.00
18,*Nc1ccc(Br)cc1-c1ccc(NC(=O)c2cccc(C(*)=O)c2)cc1 (repeat unit),253.00
19,*CC(*)OC(=O)C1(C)CCCCC1 (repeat unit),86.00
20,*c1ccc(CCc2ccc(N3C(=O)C(=O)N(*)C3=O)cc2)cc1 (repeat unit),196.00
21,*N=P(N=P(/N=S(/*)Oc1ccc(-c2ccccc2)cc1)(Oc1ccc(-c2ccccc2)cc1)Oc1ccc(-c2ccccc2)cc1)(Oc1ccc(-c2ccccc2)cc1)Oc1ccc(-c2ccccc2)cc1 (repeat unit),69.00
22,*c1ccc([Si](c2ccccc2)(c2ccccc2)c2ccc(-c3nnc(-c4ccc(-c5nnc(*)o5)cc4)o3)cc2)cc1 (repeat unit),274.00
23,*Oc1ccc(NC(=O)c2ccc(Oc3ccc(C(C)(C)c4ccc(C(C)(C)c5ccc(Oc6ccc(C(=O)Nc7ccc(*)cc7)cc6)cc5)cc4)cc3)cc2)cc1 (repeat unit),174.00
24,*OC(C)COC(=O)c1cccc(C(*)=O)c1 (repeat unit),77.00
